Legend:
[1] = molecular target: T1, BRM (Homo sapiens, UniProt P51531); assay: Cell assays to determine DC50 and Dmax (nuclear BRM immunofluorescence after Ab-CIDE treatment); assay type: cell-based; parameters: DCmax (NCI-H1944): unit not given here; settings: NCI-H1944 cells, 24 h drug treatment
T1 construct: endogenous in cells; host or cells: HCC515 and H1944 (NCI-H1944) cells
Method: HCC515 and H1944 cells were plated in 384 well plates at 4000 and 2500 cells/well, respectively. The next day Ab-CIDEs were added. Following 24 h of drug treatment the cells were fixed with […] for 15 minutes. The plates were washed three time with PBS. The cells were incubated with IF blocking solution ([…], 10% BSA, 0.1% Triton, 0.010% Azide, X-100 in PBS). After 1.5 h a 2× solution of primary antibody diluted in IF blocking buffer: BRM (Cell signaling Cat #11966, 1:2000) was added. The plates were incubated over night at 4° C. The following morning cells were washed three time with PBS. Cells were then incubated with secondary antibodies (rabbit-Alexa 488 A21206 (1:2000)) for 1 h at room temperature in the dark. Hoechst H3570 at 1:5000 was added to the wells and the plates were incubated for an additional 30 minutes. Plates were wash 3×PBS and image on Opera Phenix™ High Content Screening System. Using nuclear staining as a mask, nuclear BRM mean signal intensity was quantified.

[2] = Stability of antibody-conjugated L1-CIDE at high DAR (DAR 14 synthesis); assay type: physicochemical; settings: antibody conjugate from DAR 14 synthesis
Description: The hydrolysable linkers therefore are able to provide an advantage in obtaining high DAR, which results in high numbers of CTDEs that can be attached to a single antibody.

[3] = Ab target TfR2, conjugate DAR 5.41-6.14
[4] = Ab target TfR2, high-DAR conjugate (DAR 13.13-13.75)

T1 sequence (P51531 whole entry): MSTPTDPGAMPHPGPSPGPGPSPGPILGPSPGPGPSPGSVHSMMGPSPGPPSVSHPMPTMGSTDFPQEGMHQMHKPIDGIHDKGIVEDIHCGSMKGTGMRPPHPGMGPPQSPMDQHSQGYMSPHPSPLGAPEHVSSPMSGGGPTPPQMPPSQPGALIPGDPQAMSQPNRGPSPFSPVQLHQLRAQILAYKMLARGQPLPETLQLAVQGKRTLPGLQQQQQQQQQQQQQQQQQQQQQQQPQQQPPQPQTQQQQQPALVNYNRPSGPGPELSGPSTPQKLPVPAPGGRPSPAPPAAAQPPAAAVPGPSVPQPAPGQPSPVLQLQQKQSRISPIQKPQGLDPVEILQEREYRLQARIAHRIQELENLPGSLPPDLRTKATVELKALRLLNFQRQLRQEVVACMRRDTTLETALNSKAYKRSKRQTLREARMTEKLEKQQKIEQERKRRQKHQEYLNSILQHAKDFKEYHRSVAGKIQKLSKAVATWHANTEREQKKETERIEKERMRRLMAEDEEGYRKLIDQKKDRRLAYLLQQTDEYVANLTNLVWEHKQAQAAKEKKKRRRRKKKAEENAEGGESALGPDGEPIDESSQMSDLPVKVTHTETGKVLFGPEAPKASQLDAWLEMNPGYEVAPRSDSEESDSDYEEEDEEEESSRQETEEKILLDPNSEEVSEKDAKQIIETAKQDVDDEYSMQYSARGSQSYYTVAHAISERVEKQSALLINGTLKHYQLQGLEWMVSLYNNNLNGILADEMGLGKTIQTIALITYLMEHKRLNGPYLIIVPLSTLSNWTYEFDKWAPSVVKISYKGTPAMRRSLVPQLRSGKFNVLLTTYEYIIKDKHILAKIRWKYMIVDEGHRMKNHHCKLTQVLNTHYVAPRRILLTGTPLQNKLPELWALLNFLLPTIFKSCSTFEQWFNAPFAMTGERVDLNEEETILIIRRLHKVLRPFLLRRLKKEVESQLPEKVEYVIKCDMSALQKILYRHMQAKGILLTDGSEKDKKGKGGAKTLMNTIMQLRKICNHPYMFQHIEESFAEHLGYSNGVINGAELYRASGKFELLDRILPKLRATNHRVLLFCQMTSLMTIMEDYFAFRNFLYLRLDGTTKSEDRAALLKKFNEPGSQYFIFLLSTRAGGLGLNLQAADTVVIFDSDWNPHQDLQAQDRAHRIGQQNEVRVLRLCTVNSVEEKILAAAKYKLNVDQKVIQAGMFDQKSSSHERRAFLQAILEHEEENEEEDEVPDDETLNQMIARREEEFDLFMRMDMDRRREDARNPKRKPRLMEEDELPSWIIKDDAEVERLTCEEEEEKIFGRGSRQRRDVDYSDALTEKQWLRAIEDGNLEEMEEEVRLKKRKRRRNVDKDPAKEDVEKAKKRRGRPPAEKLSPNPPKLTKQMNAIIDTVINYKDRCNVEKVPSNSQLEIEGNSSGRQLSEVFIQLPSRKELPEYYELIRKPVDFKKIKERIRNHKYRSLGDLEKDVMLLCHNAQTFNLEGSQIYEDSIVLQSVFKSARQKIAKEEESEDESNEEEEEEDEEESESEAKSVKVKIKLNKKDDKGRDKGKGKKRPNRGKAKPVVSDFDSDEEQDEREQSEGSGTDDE

Row | SMILES | DC50 [1, 3] | DCmax (NCI-H1944) [1, 3] | Stability [2] | DCmax (NCI-H1944) [1, 4] | DC50 (NCI-H1944) [1, 3] | DC50 ([1]; Ab target TfR2, high-DAR conjugate (DAR 13.75))
1 | CC(C)[C@@H](C(=O)N1C[C@H](O)C[C@H]1C(=O)N[C@@H](C)c1ccc(C#N)cc1)c1cc(OCCN2CCC(O[C@H]3C[C@H](Oc4cc(N5C6CCC5CN(c5cc(-c7ccccc7OCc7ccc(NC(=O)[C@H](CCCCN(C)C)NC(=O)C8(C(=O)NCCCCCNC(=O)[C@H](CO)N9C(=O)C=CC9=O)CCC8)cc7)nnc5N)C6)ccn4)C3)CC2)no1 [Hy-B-CIDE-12] | 12.6 µM | 60 | – | – | – | –
2 | CC(C)[C@@H](C(=O)N1C[C@H](O)C[C@H]1C(=O)N[C@@H](C)c1ccc(C#N)cc1)c1cc(OCCN2CCC(O[C@H]3C[C@H](Oc4cc(N5C6CCC5CN(c5cc(-c7ccccc7OCc7ccc(NC(=O)[C@H](CCCCN(C)C)NC(=O)C8(C(=O)NCCCCCN(C)CCN9C(=O)C=CC9=O)CCC8)cc7)nnc5N)C6)ccn4)C3)CC2)no1 [Hy-B-CIDE-11] | 23.2 µM | 53 | – | – | – | –
3 | CC(C)[C@@H](C(=O)N1C[C@H](O)C[C@H]1C(=O)N[C@@H](C)c1ccc(C#N)cc1)c1cc(OCCN2CCC(O[C@H]3C[C@H](Oc4cc(N5C6CCC5CN(c5cc(-c7ccccc7O)nnc5NC(=O)OCc5ccc(NC(=O)[C@H](CCCCN(C)C)NC(=O)C7(C(=O)NCCCCCN(C)CCN8C(=O)C=CC8=O)CCC7)cc5)C6)ccn4)C3)CC2)no1.O=C(O)C(F)(F)F [Hy-B-CIDE-9] | 2.2 µM | 82 | – | – | – | –
4 | Cc1ncsc1-c1ccc([C@H](C)NC(=O)[C@@H]2C[C@@H](O)CN2C(=O)[C@@H](c2cc(OCCN3CCN(CCOc4cc(N5C6CCC5CN(c5cc(-c7ccccc7OCc7ccc(NC(=O)[C@H](CCCCN(C)C)NC(=O)C8(C(=O)NCCCCCN(C)CCN9C(=O)C=CC9=O)CCC8)cc7)nnc5N)C6)ccn4)[C@H](C)C3)no2)C(C)C)cc1.O=C(O)C(F)(F)F [Hy-B-CIDE-8] | 0.0856 µM | 74 | – | – | – | –
5 | CC(C)[C@@H](C(=O)N1C[C@H](OP(=O)(O)O)C[C@H]1C(=O)N[C@@H](C)c1ccc(C#N)cc1)c1cc(OCCN2CCC(O[C@H]3C[C@H](Oc4cc(N5C6CCC5CN(c5cc(-c7ccccc7OCc7ccc(NC(=O)[C@H](CCCCN(C)C)NC(=O)C8(C(=O)NCCN(C)CCN9C(=O)C=CC9=O)CCC8)cc7)nnc5N)C6)ccn4)C3)CC2)no1 [Hy-B-PCIDE-2] | – | – | Stable | 42 | – | –
6 | Cc1ncsc1-c1ccc([C@H](C)NC(=O)[C@@H]2C[C@@H](O)CN2C(=O)[C@@H](c2cc(OCCN3CCN(CCOc4cc(N5C6CCC5CN(c5cc(-c7ccccc7OCc7ccc(NC(=O)[C@H](CCCCN(C)C)NC(=O)C8(C(=O)NCCCCCNC(=O)[C@H](CO)N9C(=O)C=CC9=O)CCC8)cc7)nnc5N)C6)ccn4)[C@H](C)C3)no2)C(C)C)cc1.O=C(O)C(F)(F)F [Hy-B-CIDE-1] | 0.128 µM | 89 | – | – | – | –
7 | Cc1ncsc1-c1ccc([C@H](C)NC(=O)[C@@H]2C[C@@H](O)CN2C(=O)[C@@H](c2cc(OCCN3CCN(CCOc4cc(N5C6CCC5CN(c5cc(-c7ccccc7OCc7ccc(NC(=O)[C@H](CCCCN(C)C)NC(=O)C8(C(=O)NCCCCCNC(=O)CN9C(=O)C=CC9=O)CCC8)cc7)nnc5N)C6)ccn4)[C@H](C)C3)no2)C(C)C)cc1.O=C(O)C(F)(F)F [Hy-B-CIDE-6] | – | 90 | – | – | 0.28 µg/mL | –
8 | Cc1ncsc1-c1ccc([C@H](C)NC(=O)[C@@H]2C[C@@H](O)CN2C(=O)[C@@H](c2cc(OCCN3CCN(CCOc4cc(N5C6CCC5CN(c5cc(-c7ccccc7OCc7ccc(NC(=O)[C@H](CCCCN(C)C)NC(=O)C8(C(=O)NCCN(C)CCN9C(=O)C=CC9=O)CCC8)cc7)nnc5N)C6)ccn4)[C@H](C)C3)no2)C(C)C)cc1.O=C(O)C(F)(F)F [Hy-B-CIDE-5] | 0.412 µM | 76 | – | – | – | –
9 | COC[C@@H](C(=O)NCCCCCNC(=O)C1(C(=O)N[C@@H](CCCCN(C)C)C(=O)Nc2ccc(COc3ccccc3-c3cc(N4CC5CCC(C4)N5c4ccnc(OCCN5CCN(CCOc6cc([C@H](C(=O)N7C[C@H](O)C[C@H]7C(=O)N[C@@H](C)c7ccc(-c8scnc8C)cc7)C(C)C)on6)C[C@H]5C)c4)c(N)nn3)cc2)CCC1)N1C(=O)C=CC1=O.O=C(O)C(F)(F)F [Hy-B-CIDE-2] | 0.16 µM | 90 | – | – | – | –
10 | CC(C)[C@@H](C(=O)N1C[C@H](O)C[C@H]1C(=O)N[C@@H](C)c1ccc(C#N)cc1)c1cc(OCCN2CCC(O[C@H]3C[C@H](Oc4cc(N5C6CCC5CN(c5cc(-c7ccccc7O)nnc5NC(=O)OCc5ccc(NC(=O)[C@H](CCCCN(C)C)NC(=O)C7(C(=O)NCCCCCNC(=O)[C@H](CO)N8C(=O)C=CC8=O)CCC7)cc5)C6)ccn4)C3)CC2)no1 [Hy-B-CIDE-10] | 4.44 µM | 80 | – | – | – | –
11 | CC(C)[C@@H](C(=O)N1C[C@H](O)C[C@H]1C(=O)N[C@@H](C)c1ccc(C#N)cc1)c1cc(OCCN2CCC(O[C@H]3C[C@H](Oc4cc(N5C6CCC5CN(c5cc(-c7ccccc7OCc7ccc(NC(=O)[C@H](CCCCN(C)C)NC(=O)C8(C(=O)NCCN(C)CCN9C(=O)C=CC9=O)CCC8)cc7)nnc5N)C6)ccn4)C3)CC2)no1 [Hy-B-CIDE-7] | 0.205 µM | 62 | Stable | 75 | – | 0.0896 µM

Reference: patent US20250064968A1, “ANTIBODY-CONJUGATED CHEMICAL […] OF D[…] H[…] LINKERS AND METHODS THEREOF” (Genentech, Inc., priority 2022, published 2025)
